Laboratory results as given in ChEMBL document CHEMBL4507274 (2021).
Calls of active or inactive are those of the source. The calls are words filed in the database; no cut-off is given here.

How the values were obtained:
[1] = biological target: Insulin receptor (Homo sapiens) (UniProt P06213); experiment: IR (h) Upstate kinase activity assay; conditions: Compound concentration 10.0 uM
[2] = biological target: Tyrosine-protein kinase ABL1 (Mus musculus) (UniProt P00520); experiment: Abl (m) Upstate kinase activity assay; conditions: Compound concentration 10.0 uM
[3] = biological target: Receptor-type tyrosine-protein kinase FLT3 (Homo sapiens) (UniProt P36888); conditions: Compound concentration 10.0 uM
Receptor-type tyrosine-protein kinase FLT3 (Homo sapiens), sequence (P36888 whole entry): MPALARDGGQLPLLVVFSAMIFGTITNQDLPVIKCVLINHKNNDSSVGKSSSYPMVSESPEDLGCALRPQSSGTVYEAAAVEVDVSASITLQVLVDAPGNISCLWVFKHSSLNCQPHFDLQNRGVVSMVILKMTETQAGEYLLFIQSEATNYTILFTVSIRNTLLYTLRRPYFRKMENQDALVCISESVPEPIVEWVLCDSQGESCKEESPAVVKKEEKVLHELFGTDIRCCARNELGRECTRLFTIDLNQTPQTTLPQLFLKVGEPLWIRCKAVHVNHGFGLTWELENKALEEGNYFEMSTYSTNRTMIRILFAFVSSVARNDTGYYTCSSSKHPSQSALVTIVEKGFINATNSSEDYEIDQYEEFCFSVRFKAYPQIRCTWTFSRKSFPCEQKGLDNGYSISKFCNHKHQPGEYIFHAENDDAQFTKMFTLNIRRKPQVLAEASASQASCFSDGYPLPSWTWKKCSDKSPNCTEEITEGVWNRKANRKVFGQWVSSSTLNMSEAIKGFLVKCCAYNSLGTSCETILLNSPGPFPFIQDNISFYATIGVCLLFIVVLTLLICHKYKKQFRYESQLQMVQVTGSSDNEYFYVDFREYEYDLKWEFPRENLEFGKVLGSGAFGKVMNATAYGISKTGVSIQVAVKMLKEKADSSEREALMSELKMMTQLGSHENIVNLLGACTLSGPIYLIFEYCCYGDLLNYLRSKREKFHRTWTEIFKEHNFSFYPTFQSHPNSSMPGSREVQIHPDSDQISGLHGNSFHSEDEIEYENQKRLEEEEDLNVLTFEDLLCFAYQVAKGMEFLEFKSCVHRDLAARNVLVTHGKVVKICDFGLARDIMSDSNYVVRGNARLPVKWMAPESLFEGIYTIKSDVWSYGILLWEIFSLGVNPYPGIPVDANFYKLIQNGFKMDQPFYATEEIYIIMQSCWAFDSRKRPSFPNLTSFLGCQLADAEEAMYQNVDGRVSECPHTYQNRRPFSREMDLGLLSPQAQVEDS

[4] = system: T47D; experiment: Breast T-47D cell line MDS Pharma Services Proliferation Assay; assay type: functional, cell-based, Homo sapiens
[5] = biological target: T1, Protein kinase C epsilon type (Homo sapiens) (UniProt Q02156); experiment: PKCepsilon (h) Upstate kinase activity assay; conditions: Compound concentration 10.0 uM
T1 sequence (whole entry): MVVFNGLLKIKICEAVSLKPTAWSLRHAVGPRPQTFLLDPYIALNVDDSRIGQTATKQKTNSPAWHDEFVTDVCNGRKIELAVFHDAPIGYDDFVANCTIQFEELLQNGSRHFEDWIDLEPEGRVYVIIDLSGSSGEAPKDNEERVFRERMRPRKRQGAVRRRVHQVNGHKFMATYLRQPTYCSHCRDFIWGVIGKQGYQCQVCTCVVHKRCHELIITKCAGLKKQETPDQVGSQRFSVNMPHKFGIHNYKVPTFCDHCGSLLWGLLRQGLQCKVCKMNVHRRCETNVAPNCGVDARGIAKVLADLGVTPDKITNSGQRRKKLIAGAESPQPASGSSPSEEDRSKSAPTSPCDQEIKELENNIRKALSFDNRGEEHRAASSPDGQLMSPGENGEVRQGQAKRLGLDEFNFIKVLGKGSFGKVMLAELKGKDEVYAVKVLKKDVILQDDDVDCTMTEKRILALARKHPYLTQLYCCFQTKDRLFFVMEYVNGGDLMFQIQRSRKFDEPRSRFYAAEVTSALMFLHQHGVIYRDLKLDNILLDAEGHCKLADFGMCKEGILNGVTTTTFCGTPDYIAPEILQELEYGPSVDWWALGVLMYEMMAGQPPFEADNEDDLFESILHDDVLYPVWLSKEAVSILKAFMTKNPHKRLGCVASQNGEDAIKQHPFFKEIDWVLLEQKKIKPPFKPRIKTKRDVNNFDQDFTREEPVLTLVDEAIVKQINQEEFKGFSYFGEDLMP

[6] = biological target: Ephrin type-A receptor 2 (Homo sapiens) (UniProt P29317); experiment: EphA2 (h) Upstate kinase activity assay; conditions: Compound concentration 10.0 uM
[7] = biological target: Tyrosine-protein kinase ABL2 (Homo sapiens) (UniProt P42684); experiment: Arg (h) Upstate kinase activity assay; conditions: Compound concentration 10.0 uM
[8] = biological target: T2, Dual specificity mitogen-activated protein kinase kinase 6 (Homo sapiens) (UniProt P52564); experiment: MKK6 (h) Upstate kinase activity assay; conditions: Compound concentration 10.0 uM
T2 sequence (whole entry): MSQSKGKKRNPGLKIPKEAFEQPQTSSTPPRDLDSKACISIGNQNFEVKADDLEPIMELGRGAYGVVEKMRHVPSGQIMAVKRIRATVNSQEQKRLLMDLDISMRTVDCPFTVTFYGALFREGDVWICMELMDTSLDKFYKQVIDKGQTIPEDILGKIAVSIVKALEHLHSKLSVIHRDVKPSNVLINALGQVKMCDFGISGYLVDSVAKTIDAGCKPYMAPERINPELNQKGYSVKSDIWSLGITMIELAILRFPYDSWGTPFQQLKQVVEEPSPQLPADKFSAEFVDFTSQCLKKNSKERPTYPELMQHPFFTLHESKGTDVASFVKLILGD

[9] = biological target: Rho-associated protein kinase 2 (Homo sapiens, UniProt O75116); conditions: Compound concentration 10.0 uM
Rho-associated protein kinase 2, sequence (O75116 whole entry, looked up): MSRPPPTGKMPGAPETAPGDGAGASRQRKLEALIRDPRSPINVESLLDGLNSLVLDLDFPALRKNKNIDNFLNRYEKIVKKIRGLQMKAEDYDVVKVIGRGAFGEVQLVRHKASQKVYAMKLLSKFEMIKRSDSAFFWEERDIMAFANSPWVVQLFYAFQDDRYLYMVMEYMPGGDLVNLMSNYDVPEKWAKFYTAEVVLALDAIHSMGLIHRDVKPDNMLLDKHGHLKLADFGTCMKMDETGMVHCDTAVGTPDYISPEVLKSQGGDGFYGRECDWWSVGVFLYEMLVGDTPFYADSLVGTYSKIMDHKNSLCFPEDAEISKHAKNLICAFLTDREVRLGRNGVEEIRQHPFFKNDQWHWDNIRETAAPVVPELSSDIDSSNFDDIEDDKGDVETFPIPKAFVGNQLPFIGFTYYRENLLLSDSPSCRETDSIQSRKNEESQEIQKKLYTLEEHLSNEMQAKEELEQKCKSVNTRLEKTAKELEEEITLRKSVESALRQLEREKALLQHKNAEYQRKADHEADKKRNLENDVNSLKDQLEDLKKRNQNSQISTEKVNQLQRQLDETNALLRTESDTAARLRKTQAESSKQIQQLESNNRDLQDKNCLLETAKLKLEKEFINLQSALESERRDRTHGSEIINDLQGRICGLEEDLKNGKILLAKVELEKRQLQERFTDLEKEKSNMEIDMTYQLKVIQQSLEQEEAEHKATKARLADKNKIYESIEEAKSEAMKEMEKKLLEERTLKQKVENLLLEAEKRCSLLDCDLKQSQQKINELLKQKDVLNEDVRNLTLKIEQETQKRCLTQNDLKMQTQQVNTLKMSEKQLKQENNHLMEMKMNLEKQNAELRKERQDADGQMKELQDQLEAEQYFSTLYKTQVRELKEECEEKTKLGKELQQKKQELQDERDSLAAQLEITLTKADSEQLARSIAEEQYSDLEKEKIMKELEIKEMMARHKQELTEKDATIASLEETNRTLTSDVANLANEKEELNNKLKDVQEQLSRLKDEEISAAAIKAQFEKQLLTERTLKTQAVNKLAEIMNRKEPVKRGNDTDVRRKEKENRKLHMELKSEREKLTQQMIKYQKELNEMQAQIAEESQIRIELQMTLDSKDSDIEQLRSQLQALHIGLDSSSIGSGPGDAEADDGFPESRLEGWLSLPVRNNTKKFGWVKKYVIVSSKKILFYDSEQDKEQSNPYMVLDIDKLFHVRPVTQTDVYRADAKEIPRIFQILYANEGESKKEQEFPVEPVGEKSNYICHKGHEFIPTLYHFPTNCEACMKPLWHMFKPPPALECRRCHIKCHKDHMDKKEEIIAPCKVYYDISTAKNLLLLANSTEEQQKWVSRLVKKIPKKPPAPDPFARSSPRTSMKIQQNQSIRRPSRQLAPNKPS

[10] = biological target: Protein kinase C eta type (Homo sapiens) (UniProt P24723); experiment: PKCeta (h) Upstate kinase activity assay; conditions: Compound concentration 10.0 uM
Protein kinase C eta type (Homo sapiens), sequence (P24723 whole entry): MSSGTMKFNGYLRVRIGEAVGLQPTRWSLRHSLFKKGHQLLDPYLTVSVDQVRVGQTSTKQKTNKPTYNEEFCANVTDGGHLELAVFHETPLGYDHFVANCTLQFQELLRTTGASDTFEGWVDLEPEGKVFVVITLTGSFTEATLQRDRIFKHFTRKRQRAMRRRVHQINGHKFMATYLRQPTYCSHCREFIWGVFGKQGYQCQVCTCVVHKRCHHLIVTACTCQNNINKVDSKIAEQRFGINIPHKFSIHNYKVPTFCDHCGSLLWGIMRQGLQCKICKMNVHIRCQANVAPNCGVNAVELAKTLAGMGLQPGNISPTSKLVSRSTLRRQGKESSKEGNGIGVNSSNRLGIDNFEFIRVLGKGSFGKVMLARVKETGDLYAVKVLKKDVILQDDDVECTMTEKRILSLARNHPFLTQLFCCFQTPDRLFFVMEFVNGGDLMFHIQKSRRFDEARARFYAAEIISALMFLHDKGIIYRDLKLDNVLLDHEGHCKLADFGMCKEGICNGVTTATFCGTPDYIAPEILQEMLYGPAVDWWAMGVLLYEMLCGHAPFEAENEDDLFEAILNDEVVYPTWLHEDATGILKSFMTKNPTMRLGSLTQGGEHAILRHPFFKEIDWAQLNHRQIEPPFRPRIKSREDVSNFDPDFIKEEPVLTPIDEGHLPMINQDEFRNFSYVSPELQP

[11] = biological target: 5-hydroxytryptamine receptor 1A (Homo sapiens) (UniProt P08908); conditions: Compound concentration 10.0 uM
5-hydroxytryptamine receptor 1A (Homo sapiens), sequence (P08908 whole entry): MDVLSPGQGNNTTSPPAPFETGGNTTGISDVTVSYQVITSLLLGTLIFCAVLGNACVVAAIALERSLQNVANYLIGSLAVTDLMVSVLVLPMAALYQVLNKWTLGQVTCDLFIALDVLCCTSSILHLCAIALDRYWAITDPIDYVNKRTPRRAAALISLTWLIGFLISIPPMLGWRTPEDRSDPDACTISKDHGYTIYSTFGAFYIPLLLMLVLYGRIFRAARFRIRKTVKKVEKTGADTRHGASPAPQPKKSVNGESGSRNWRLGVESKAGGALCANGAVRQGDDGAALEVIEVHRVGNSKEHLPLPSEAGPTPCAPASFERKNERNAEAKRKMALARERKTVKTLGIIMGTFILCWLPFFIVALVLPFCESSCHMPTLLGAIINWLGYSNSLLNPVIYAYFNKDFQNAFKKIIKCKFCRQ

[12] = biological target: T3, Dual specificity mitogen-activated protein kinase kinase 7 (Homo sapiens) (UniProt O14733); experiment: MKK7βbeta(h) Upstate kinase activity assay; conditions: Compound concentration 10.0 uM
T3 sequence (whole entry): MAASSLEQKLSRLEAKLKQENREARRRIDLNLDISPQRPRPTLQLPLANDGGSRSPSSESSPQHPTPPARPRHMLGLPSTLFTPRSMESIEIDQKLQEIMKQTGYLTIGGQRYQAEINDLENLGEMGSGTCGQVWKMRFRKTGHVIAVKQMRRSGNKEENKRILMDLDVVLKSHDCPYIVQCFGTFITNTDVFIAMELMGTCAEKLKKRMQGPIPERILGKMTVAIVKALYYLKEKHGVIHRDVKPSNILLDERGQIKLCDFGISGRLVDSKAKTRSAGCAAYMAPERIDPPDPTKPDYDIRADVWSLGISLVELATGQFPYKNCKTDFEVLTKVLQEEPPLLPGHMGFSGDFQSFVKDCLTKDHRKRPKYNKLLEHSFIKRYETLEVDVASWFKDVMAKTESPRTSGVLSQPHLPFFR

[13] = biological target: Casein kinase I isoform delta (Homo sapiens) (UniProt P48730); experiment: CK1delta (h) Upstate kinase activity assay; conditions: Compound concentration 10.0 uM
Casein kinase I isoform delta (Homo sapiens), sequence (P48730 whole entry, looked up, canonical isoform): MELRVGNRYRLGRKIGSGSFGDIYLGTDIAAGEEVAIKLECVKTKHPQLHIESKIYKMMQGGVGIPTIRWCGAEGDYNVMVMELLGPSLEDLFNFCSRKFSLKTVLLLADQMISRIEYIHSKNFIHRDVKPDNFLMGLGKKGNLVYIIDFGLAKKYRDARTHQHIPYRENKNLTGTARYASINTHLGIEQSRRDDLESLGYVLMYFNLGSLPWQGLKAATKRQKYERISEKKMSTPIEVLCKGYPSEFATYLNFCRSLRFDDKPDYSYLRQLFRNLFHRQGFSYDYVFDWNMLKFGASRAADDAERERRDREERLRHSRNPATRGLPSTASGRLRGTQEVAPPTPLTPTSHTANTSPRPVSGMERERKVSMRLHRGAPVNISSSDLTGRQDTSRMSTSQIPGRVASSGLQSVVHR

[14] = system: KATO III stomach cancer cell line; experiment: Stomach KATO III cell line MDS Pharma Services Proliferation Assay; assay type: functional, cell-based, Homo sapiens
[15] = biological target: Protein kinase C delta type (Homo sapiens) (UniProt Q05655); experiment: PKCdelta (h) Upstate kinase activity assay; conditions: Compound concentration 10.0 uM
Protein kinase C delta type (Homo sapiens), sequence (Q05655 whole entry, looked up): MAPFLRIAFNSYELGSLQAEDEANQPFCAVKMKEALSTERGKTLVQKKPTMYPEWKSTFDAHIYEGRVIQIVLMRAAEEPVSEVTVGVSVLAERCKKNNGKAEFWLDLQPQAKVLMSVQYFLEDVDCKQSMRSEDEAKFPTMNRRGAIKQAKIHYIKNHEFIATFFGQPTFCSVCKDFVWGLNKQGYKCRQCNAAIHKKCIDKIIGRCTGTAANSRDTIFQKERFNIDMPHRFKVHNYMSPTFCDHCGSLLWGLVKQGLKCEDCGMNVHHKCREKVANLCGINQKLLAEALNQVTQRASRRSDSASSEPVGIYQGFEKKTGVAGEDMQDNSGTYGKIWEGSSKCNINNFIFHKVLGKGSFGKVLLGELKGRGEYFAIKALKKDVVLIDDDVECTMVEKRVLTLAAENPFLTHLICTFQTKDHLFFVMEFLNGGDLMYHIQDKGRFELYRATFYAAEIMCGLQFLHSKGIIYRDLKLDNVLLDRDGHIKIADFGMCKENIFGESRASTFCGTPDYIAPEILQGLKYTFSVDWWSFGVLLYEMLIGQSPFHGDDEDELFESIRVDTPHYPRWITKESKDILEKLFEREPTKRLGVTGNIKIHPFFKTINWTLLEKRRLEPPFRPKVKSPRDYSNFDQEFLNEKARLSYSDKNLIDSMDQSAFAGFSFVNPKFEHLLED

[16] = biological target: Glycogen synthase kinase-3 alpha (Homo sapiens) (UniProt P49840); experiment: GSK3alpha (h) Upstate kinase activity assay; conditions: Compound concentration 10.0 uM
Glycogen synthase kinase-3 alpha (Homo sapiens), sequence (P49840 2-483 limits assumed): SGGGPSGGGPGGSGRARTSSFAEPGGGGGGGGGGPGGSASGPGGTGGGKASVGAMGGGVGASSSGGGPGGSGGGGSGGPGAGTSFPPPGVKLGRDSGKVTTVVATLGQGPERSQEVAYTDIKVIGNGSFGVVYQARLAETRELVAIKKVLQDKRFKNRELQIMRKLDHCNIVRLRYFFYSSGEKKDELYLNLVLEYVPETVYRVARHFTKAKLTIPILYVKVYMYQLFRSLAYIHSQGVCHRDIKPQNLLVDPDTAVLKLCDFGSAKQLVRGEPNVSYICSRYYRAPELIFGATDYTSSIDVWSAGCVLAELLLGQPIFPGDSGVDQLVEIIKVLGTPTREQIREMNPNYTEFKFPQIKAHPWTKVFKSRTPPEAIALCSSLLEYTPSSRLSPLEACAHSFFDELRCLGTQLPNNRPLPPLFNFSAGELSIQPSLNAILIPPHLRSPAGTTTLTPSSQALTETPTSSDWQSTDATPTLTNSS

[17] = Mechanistic tissue assay (arteria saphena rabbit); assay type: tissue-based, Oryctolagus cuniculus, Saphenous artery
[18] = system: Epidermal growth factor receptor (Homo sapiens), P00533 [UNDEFINED MUTATION]; conditions: Compound concentration 100.0 nM
[19] = system: Epidermal growth factor receptor (Homo sapiens), P00533 [UNDEFINED MUTATION]; conditions: Compound concentration 100.0 nM; remark: listed apart in the source
[20] = system: Epidermal growth factor receptor (Homo sapiens), P00533 [UNDEFINED MUTATION]; conditions: Compound concentration 100.0 nM; remark: listed apart in the source
[21] = system: Epidermal growth factor receptor (Homo sapiens), P00533 [L861Q]; conditions: Compound concentration 100.0 nM
[22] = biological target: Mitogen-activated protein kinase kinase kinase 20 (Homo sapiens) (UniProt Q9NYL2); conditions: Compound concentration 100.0 nM

Cc1c[nH]c2nccc(Oc3c(F)cc(Nc4cc(Cl)nc(N)n4)cc3F)c12 [BAY-549]
inhibition [1]: 59%
inhibition [2]: 33%
inhibition [3]: 98%
IC50 ([4]; Homo sapiens, T47D): 2.9 µM
TGI ([4]; Homo sapiens, T47D): 15 µM
CC50 ([4]; Homo sapiens, T47D, read-out: LC50 (the source's name)): 75 µM
Mean % growth (n = 2) for 1.0 µM probe concentration ([4]; ± SEM 1 % growth): 86%
Mean % growth (n = 2) for 100.0 µM probe concentration ([4]; ± SEM 2 % growth): -45%
Mean % growth (n = 2) for 10.0 µM probe concentration ([4]; ± SEM 4 % growth): -2%
Mean % growth (n = 2) for 0.01 µM probe concentration ([4]; ± SEM 6 % growth): 106%
Mean % growth (n = 2) for 0.1 µM probe concentration ([4]; ± SEM 8 % growth): 97%
inhibition [5]: 28%
inhibition [6]: 4%
inhibition [7]: 37%
inhibition [8]: 6%
inhibition [9]: 100%
inhibition [10]: 24%
inhibition [11]: 11.7%
inhibition [12]: 20%
inhibition [13]: 65%
IC50 ([14]; Homo sapiens, KATO III): 3.2 µM
TGI ([14]; Homo sapiens, KATO III): > 100 µM
CC50 ([14]; Homo sapiens, KATO III, read-out: LC50 (the source's name)): > 100 µM
Mean % growth (n = 2) for 0.01 µM probe concentration ([14]; ± SEM 7 % growth): 98%
Mean % growth (n = 2) for 10.0 µM probe concentration ([14]; ± SEM 7 % growth): 27%
Mean % growth (n = 2) for 100.0 µM probe concentration ([14]; ± SEM 7 % growth): 19%
Mean % growth (n = 2) for 1.0 µM probe concentration ([14]; ± SEM 8 % growth): 66%
Mean % growth (n = 2) for 0.1 µM probe concentration ([14]; ± SEM 11 % growth): 99%
inhibition [15]: 16%
inhibition [16]: 13%
IC50 [17]: 0.065 µM (active)

Cn1cc(Cl)c2c(Oc3c(F)cc(Nc4cc(Cl)nc(N)n4)cc3F)ccnc21 [BAY-4900]
residual activity [18]: 77%
residual activity [19]: 88%
residual activity [20]: 52%
residual activity [21]: 100%
residual activity [22]: 97%
